Values of other authors, collected in PMC5601361, “Targeting the Receptor for Advanced Glycation Endproducts (RAGE): A Medicinal Chemistry Perspective” (Journal of Medicinal Chemistry, 2017).
“Also recorded” adds a separate entry of the source. Like-named read-outs stand apart in the source and are kept apart here. Each block holds one compound with its values, some of them ahead of it.

What was measured:
HT22 cells = details: 10 μM
[1] = test system: human RAGE-Aβ1–42 interaction; parameters: method as in PMID 26051601; details: in vitro
APPswe/PS1 mice = details: po 50 mg/kg every 2 days for 4 weeks; 50 mg/kg
human sRAGE [2] = details: VC1 domain; ITC; read-out: affinity for RAGE (Kd)
human sRAGE [3] = molecular target: human sRAGE; parameters: method as in PMID 17508727; details: SPR
human sRAGE [4] = details: SPR
human sRAGE [5] = molecular target: human sRAGE; parameters: method as in PMID 17660747; details: V domain, SPR
human RAGE-Aβ = test system: human RAGE-Aβ; parameters: method as in PMID 23140885
[6] = test system: RAGE-overexpressing brain endothelial cells monolayer; parameters: method as in PMID 23140885; details: artificial BBB system
CHO cells = test system: CHO cells; parameters: method as in PMID 23140885; details: in vitro

Compound: CC(C)(C)OC(=O)N1CCN(CCCOc2ccc(-c3nc4ccc(Oc5ccc(Cl)cc5)cc4o3)cc2)CC1 [Compound 8]
toxicity in HT22 cells (HT22 cells): not toxic
RAGE-Aβ1–42 binding [1]: • RAGE-Aβ1–42 binding inhibition (in vitro)
amyloid deposition / Aβ and amyloid plaque levels in the brain (APPswe/PS1 mice): did not significantly affect

Kd (human sRAGE [2]): 3200 to 9400 nM
Kd (human sRAGE [3]; V domain, read-out: Kd1): 550 nM
Kd (human sRAGE [3]; V domain, read-out: Kd2): 470 nM
Kd (human sRAGE [3]; VC1 domain, read-out: Kd1): 11 nM
Kd (human sRAGE [3]; VC1 domain, read-out: Kd2): 244 nM
Kd (human sRAGE [4]; V domain, read-out: Kd1): 500 nM
Kd (human sRAGE [4]; V domain, read-out: Kd2): 600 nM
Kd (human sRAGE [4]; VC1 domain, read-out: Kd1): 11 nM
Kd (human sRAGE [4]; VC1 domain, read-out: Kd2): 200 nM
Kd (human sRAGE [5]; S100B dimer, read-out: Kd): 8300 nM
Kd (human sRAGE [5]; S100B tetramer, read-out: Kd1): 1100 nM
Kd (human sRAGE [5]; S100B tetramer, read-out: Kd2): 42 nM
Compound: S100B: Ca2+-binding S100/calgranulin family protein, endogenous RAGE ligand [Compound S100B]

RAGE-Aβ binding (human RAGE-Aβ): • RAGE-Aβ binding inhibition
IC50 (human RAGE-Aβ; ELISA on human RAGE-Aβ (RAGE-Aβ1–42 interaction)): 1210 nM
Compound: CCCCc1sc(-c2ccc(OCCN3CCN(C)CC3)cc2)nc1-c1ccc(Oc2ccc(Cl)cc2)cc1 [Compound 2]
Aβ1–42 influx / Aβ transport [6]: Aβ transport inhibition; also recorded: • inhibition of Aβ1–42 influx in the brain
Aβ1–42-associated NF-κB activation (CHO cells): • inhibition of Aβ1–42-associated NF-κB activation (in vitro)
